Data from PMC8839448, “Novel Pyridothienopyrimidine Derivatives: Design, Synthesis and Biological Evaluation as Antimicrobial and Anticancer Agents” (Molecules, 2022).
In brackets after ≈: the same amount, converted by molar mass. Several values for one entry are separate records, joined by “and”; a condition that tells them apart may be missing. Equal values may be shown once. Read-outs that look alike come from different tables or passages of the source.

Legend:
[1] = system: Staphylococcus aureus 25923; assay: In vitro antibacterial activity, MIC by broth dilution; format: cell-based; details: Gram +ve bacteria, read-out: MIC S. aureus
Bacillus subtilis 6633 = assay: as above; format: cell-based; details: Gram +ve bacteria, read-out: MIC B. subtilis
Bacillus cereus 33018 = assay: as above; format: cell-based; details: Gram +ve bacteria, read-out: MIC B. cereus
Escherichia coli 8739 = assay: as above; format: cell-based; details: Gram −ve bacteria
[2] = system: Salmonella typhimurium 14028; assay: as above; format: cell-based; details: Salmonella enterica, Gram −ve bacteria, read-out: MIC S. typhimurium
Candida albicans 10231 = assay: In vitro antifungal activity, MIC by broth dilution; format: cell-based; details: yeast, read-out: MIC C. albicans
Candida tropicals 750 = assay: as above; format: cell-based; details: yeast, read-out: MIC C. tropicals
[3] = system: Saccharomycese cerevisiae; assay: as above; format: cell-based; details: Saccharomyces cerevisiae, yeast, read-out: MIC S. cerevisiae
Aspergillus flavus = assay: as above; format: cell-based; details: fungi
[4] = system: Aspergillus niger EM77 (KF774181); assay: as above; format: cell-based; details: fungi
[5] = system: hepatocellular carcinoma (HepG2) cells; assay: Cytotoxicity, MTT assay; format: cell-based; details: Homo sapiens, read-out: Cytotoxic activity IC50 HepG2
[6] = system: breast cancer (MCF-7) cells; assay: Cytotoxicity, MTT assay; format: cell-based, human; details: read-out: Cytotoxic activity IC50 MCF7
[7] = system: all the tested yeasts and fungi strains; assay: Antifungal MIC, range over the panel; format: cell-based
[8] = Cytotoxicity against normal cells, MTT assay; details: human, WISH normal cells
Description: The cytotoxicity was estimated as IC50 in μM for the tested compounds and the reference drug doxorubicin, and are listed in Table 3.

EGFR kinase = EGFR kinase (Homo sapiens, UniProt P00533); assay: In vitro EGFR kinase inhibitory assay (Kinase-Glo MAX kit); details: for IC50: EGFR IC50, EGFR kinase assay kit, triplicate, ± SD
EGFR kinase, sequence (P00533 25-1210): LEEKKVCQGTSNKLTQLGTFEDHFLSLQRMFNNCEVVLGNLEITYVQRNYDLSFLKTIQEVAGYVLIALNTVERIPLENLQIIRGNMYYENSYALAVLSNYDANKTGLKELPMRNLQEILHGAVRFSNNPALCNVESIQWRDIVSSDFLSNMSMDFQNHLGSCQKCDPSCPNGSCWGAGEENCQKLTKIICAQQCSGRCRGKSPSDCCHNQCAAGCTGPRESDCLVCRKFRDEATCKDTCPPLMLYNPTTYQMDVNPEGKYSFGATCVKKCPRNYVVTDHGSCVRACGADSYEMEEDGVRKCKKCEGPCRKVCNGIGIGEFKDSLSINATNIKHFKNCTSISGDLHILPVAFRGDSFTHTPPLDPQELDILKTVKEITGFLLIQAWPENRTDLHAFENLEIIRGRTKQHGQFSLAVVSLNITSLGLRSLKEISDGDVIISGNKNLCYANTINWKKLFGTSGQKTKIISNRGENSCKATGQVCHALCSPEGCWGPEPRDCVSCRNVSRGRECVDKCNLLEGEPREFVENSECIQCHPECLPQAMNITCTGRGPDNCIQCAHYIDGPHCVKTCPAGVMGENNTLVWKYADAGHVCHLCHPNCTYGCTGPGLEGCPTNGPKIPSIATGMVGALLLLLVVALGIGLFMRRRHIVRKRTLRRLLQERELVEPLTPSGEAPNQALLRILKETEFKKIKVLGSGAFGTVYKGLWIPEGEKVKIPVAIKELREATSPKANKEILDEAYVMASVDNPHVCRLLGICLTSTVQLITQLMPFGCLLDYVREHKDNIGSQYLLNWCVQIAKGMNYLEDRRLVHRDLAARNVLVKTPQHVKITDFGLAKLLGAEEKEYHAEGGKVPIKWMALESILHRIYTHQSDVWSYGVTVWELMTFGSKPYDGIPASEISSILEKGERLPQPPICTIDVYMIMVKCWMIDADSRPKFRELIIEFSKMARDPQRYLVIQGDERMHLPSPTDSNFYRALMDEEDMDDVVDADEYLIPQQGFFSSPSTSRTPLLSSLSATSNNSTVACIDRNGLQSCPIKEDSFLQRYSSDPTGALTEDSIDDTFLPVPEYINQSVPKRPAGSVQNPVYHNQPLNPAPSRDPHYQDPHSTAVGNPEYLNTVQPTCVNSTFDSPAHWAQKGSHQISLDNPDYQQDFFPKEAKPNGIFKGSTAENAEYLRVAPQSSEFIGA
Protocol: The assay kit is designed to measure EGFR Kinase activity for screening applications using Kinase-Glo® MAX as a detection reagent. The luminescence was measured using a microplate reader (Infinite M200 microplate reader, Tecan, Männedorf, Switzerland) [54]. All assays were performed in triplicate and the relative inhibition (%) of inhibitors was then calculated via comparison with the control with no inhibitor.
In vitro EGFR kinase assay
The assay Kit is designed to measure EGFR Kinase
activity for screening applications using Kinase-Glo® MAX as a detection reagent
using Kinase-Glo® MAX as a detection reagent. Thaw 5x Kinase Buffer 1: ATP and
PTK substrate Poly (Glu:Tyr 4:1) (10 mg/ml) kinase was provided. Then the master
mixture was prepared: N wells x (6 μl 5x Kinase Buffer 1 + 1 µl ATP (500 µM) + 1
µl PTK substrate Poly (Glu:Tyr 4:1) (10 mg/ml)+ 17 μl water) and 25 μl of the
mixture was added to every well. The tested compounds were dissolved in DMSO,
well labeled as “Positive Control", 5 μl of the same solution of the reference drug
erlotinib and “Blank”, 5 μl of the same solution without inhibitor (Inhibitor buffer).
ml of 1x Kinase Buffer 1) was prepared by mixing 600 µl of 5x Kinase Buffer 1 with
The reaction initiated by adding 20 µl of diluted EGFR enzyme to the wells designated “Positive Control” and "Test Inhibitor Control". Incubate at 30°C for 40
minutes. Thaw Kinase-G lo Max reagent. After the 40 minute reaction, 50 µl of
Kinase-Glo Max reagent was added to each well. The plate was covered with
aluminum foil and incubate at room temperature for 15 minutes. Then the
luminescence was measured using the microplate reader (Infinite M200 microplate
reader, Tecan, Männedorf, Switzerland). All assays were performed in triplicate. The
relative inhibition (%) of inhibitors were then calculated compared to the control with
no inhibitor. Then the IC50 values and their standard deviation (SD) for the tested
compounds and the reference drug were determined in (nM).

five bacterial strains = assay: Antibacterial MIC, range over the panel; format: cell-based

MIC [1]	MIC (Bacillus subtilis 6633)	MIC (Bacillus cereus 33018)	MIC (Escherichia coli 8739)	MIC [2]	MIC (Candida albicans 10231)	MIC (Candida tropicals 750)	MIC [3]	MIC (Aspergillus flavus)	MIC [4]	melting point	MIC range against the tested yeasts and fungi strains [7]	IC50 (EGFR kinase)	Fold more potent than erlotinib (EGFR inhibition) (EGFR kinase; relative to erlotinib)	Structure (SMILES)	IC50 [5]	IC50 ([6]; Homo sapiens, MCF7, MCF7 cells)	IC50 [8]	IC50 ([6]; MCF7 cells)	MIC range against the tested bacterial strains (five bacterial strains)
> 128 µg/mL	> 128 µg/mL	64 µg/mL (≈ 259 µM)	> 128 µg/mL	> 128 µg/mL	128 µg/mL (≈ 518 µM)	128 µg/mL (≈ 518 µM)	16 µg/mL (≈ 64.7 µM)	> 128 µg/mL	> 128 µg/mL					Cc1cc(C)c2c(n1)sc1c(=O)[nH]c(=O)[nH]c12 [Compound 2a, 7,9-Dimethylpyrido[3′,2′:4,5]thieno[3,2-d]pyrimidine-2,4(1H,3H)-dione]	56.6 ± 3.64 µM	64.3 ± 2.91 µM			
64 µg/mL (≈ 166 µM)	128 µg/mL (≈ 332 µM)	64 µg/mL (≈ 166 µM)	128 µg/mL (≈ 332 µM)	64 µg/mL (≈ 166 µM)	64 µg/mL (≈ 166 µM)	32 µg/mL (≈ 83 µM)	32 µg/mL (≈ 83 µM)	32 µg/mL (≈ 83 µM)	32 µg/mL (≈ 83 µM)	316 to 317 °C				Cc1ccc(-c2cc(-c3ccccc3)nc3sc4c(=O)[nH]c(=O)[nH]c4c23)cc1 [Compound 2b, 7-Phenyl-9-(p-tolyl)pyrido[3′,2′:4,5]thieno[3,2-d]pyrimidine-2,4(1H,3H)-dione]	33.2 ± 1.79 µM	42.4 ± 2.24 µM			
32 µg/mL (≈ 75.8 µM)	8 µg/mL (≈ 18.9 µM)	32 µg/mL (≈ 75.8 µM)	16 µg/mL (≈ 37.9 µM)	32 µg/mL (≈ 75.8 µM)	32 µg/mL (≈ 75.8 µM)	16 µg/mL (≈ 37.9 µM)	64 µg/mL (≈ 152 µM)	32 µg/mL (≈ 75.8 µM)	16 µg/mL (≈ 37.9 µM)	220 °C				Cc1ccc(-c2cc(-c3ccccc3)nc3sc4c(Cl)nc(Cl)nc4c23)cc1 [Compound 3b, 2,4-Dichloro-7-phenyl-9-(p-tolyl)pyrido[3′,2′:4,5]thieno[3,2-d]pyrimidine]	11.3 ± 0.65 µM	24.7 ± 1.32 µM			
4 µg/mL (≈ 14.3 µM)	8 µg/mL (≈ 28.6 µM)	4 µg/mL (≈ 14.3 µM)	8 µg/mL (≈ 28.6 µM)	16 µg/mL (≈ 57.2 µM)	16 µg/mL (≈ 57.2 µM)	16 µg/mL (≈ 57.2 µM)	8 µg/mL (≈ 28.6 µM)	8 µg/mL (≈ 28.6 µM)	8 µg/mL (≈ 28.6 µM)	330 to 331 °C	4 to 16 µg/mL	0.027 µM and 0.0536 µM	1.5 fold	Cc1cc(C)c2c(n1)sc1c(=O)[nH]c(CCl)nc12 [Compound 4a, 2-(Chloromethyl)-7,9-dimethylpyrido[3′,2′:4,5]thieno[3,2-d]pyrimidin-4(3H)-one]	2.99 ± 0.15 µM	15.4 ± 0.45 µM	460 ± 11.1 µM		
8 µg/mL (≈ 19.1 µM)	128 µg/mL (≈ 306 µM)	16 µg/mL (≈ 38.3 µM)	128 µg/mL (≈ 306 µM)	128 µg/mL (≈ 306 µM)	8 µg/mL (≈ 19.1 µM)	16 µg/mL (≈ 38.3 µM)	8 µg/mL (≈ 19.1 µM)	16 µg/mL (≈ 38.3 µM)	16 µg/mL (≈ 38.3 µM)	310 °C	4 to 16 µg/mL			Cc1ccc(-c2cc(-c3ccccc3)nc3sc4c(=O)[nH]c(CCl)nc4c23)cc1 [Compound 4b, 2-(Chloromethyl)-7-phenyl-9-(p-tolyl)pyrido[3′,2′:4,5]thieno[3,2-d]pyrimidin-4(3H)-one]	36.5 ± 1.82 µM	43.3 ± 2.28 µM			
8 µg/mL (≈ 16.6 µM)	8 µg/mL (≈ 16.6 µM)	16 µg/mL (≈ 33.2 µM)	32 µg/mL (≈ 66.4 µM)	32 µg/mL (≈ 66.4 µM)	64 µg/mL (≈ 133 µM)	16 µg/mL (≈ 33.2 µM)	16 µg/mL (≈ 33.2 µM)	32 µg/mL (≈ 66.4 µM)	64 µg/mL (≈ 133 µM)	260 to 261 °C				Cc1ccc(-c2cc(-c3ccccc3)nc3sc4c(=O)[nH]c(CN5CCN(C)CC5)nc4c23)cc1 [Compound 5b, 2-((4-Methylpiperazin-1-yl)methyl)-7-phenyl-9-(p-tolyl)pyrido[3′,2′:4,5]thieno[3,2-d]pyrimidin-4(3H)-one]	10.2 ± 0.29 µM	21.1 ± 1.16 µM			
4 µg/mL (≈ 9.4 µM)	8 µg/mL (≈ 18.8 µM)	16 µg/mL (≈ 37.6 µM)	8 µg/mL (≈ 18.8 µM)	16 µg/mL (≈ 37.6 µM)	8 µg/mL (≈ 18.8 µM)	8 µg/mL (≈ 18.8 µM)	8 µg/mL (≈ 18.8 µM)	16 µg/mL (≈ 37.6 µM)	8 µg/mL (≈ 18.8 µM)	210 °C	4 to 16 µg/mL	0.05319 ± 0.00046 µM		Cc1ccc(-c2cc(-c3ccccc3)nc3sc4c(c23)NC2(CCCC2)NC4=O)cc1 [Compound 6b, 7′-Phenyl-9′-(p-tolyl)-1′H-spiro[cyclopentane-1,2′-pyrido[3′,2′:4,5]thieno[3,2-d]pyrimidin]-4′(3′H)-one]	2.75 ± 0.13 µM	9.89 ± 0.55 µM	395 ± 10.2 µM	9.89 ± 0.55 µM	
4 µg/mL (≈ 13.2 µM)	> 128 µg/mL	8 µg/mL (≈ 26.4 µM)	8 µg/mL (≈ 26.4 µM)	16 µg/mL (≈ 52.7 µM)	16 µg/mL (≈ 52.7 µM)	16 µg/mL (≈ 52.7 µM)	8 µg/mL (≈ 26.4 µM)	16 µg/mL (≈ 52.7 µM)	16 µg/mL (≈ 52.7 µM)		4 to 16 µg/mL			Cc1cc(C)c2c3c(sc2n1)C(=S)NC1(CCCC1)N3 [Compound 7a, 7′,9′-Dimethyl-1′H-spiro[cyclopentane-1,2′-pyrido[3′,2′:4,5]thieno[3,2-d]pyrimidine]-4′(3′H)-thione]	26.1 ± 1.89 µM	28.1 ± 0.92 µM			
32 µg/mL (≈ 101 µM)	32 µg/mL (≈ 101 µM)	8 µg/mL (≈ 25.2 µM)	32 µg/mL (≈ 101 µM)	32 µg/mL (≈ 101 µM)	16 µg/mL (≈ 50.4 µM)	8 µg/mL (≈ 25.2 µM)	8 µg/mL (≈ 25.2 µM)	4 µg/mL (≈ 12.6 µM)	16 µg/mL (≈ 50.4 µM)	201 °C	4 to 16 µg/mL			Cc1cc(C)c2c3c(sc2n1)C(=S)NC1(CCCCC1)N3 [Compound 7c, 7′,9′-Dimethyl-1′H-spiro[cyclohexane-1,2′-pyrido[3′,2′:4,5]thieno[3,2-d]pyrimidine]-4′(3′H)-thione]	10.3 ± 0.31 µM	20.9 ± 0.93 µM			
4 µg/mL (≈ 8.78 µM)	64 µg/mL (≈ 140 µM)	64 µg/mL (≈ 140 µM)	32 µg/mL (≈ 70.2 µM)	32 µg/mL (≈ 70.2 µM)	32 µg/mL (≈ 70.2 µM)	64 µg/mL (≈ 140 µM)	32 µg/mL (≈ 70.2 µM)	64 µg/mL (≈ 140 µM)	64 µg/mL (≈ 140 µM)	178 to 179 °C				Cc1ccc(-c2cc(-c3ccccc3)nc3sc4c(c23)NC2(CCCCC2)NC4=S)cc1 [Compound 7d, 7′-Phenyl-9′-(p-tolyl)-1′H-spiro[cyclohexane-1,2′-pyrido[3′,2′:4,5]thieno[3,2-d]pyrimidine]-4′(3′H)-thione]	23.2 ± 0.35 µM	26.6 ± 1.62 µM			
														COc1cccc2c1C(=O)c1c(O)c3c(c(O)c1C2=O)C[C@@](O)(C(=O)CO)C[C@@H]3O[C@H]1C[C@H](N)[C@H](O)[C@H](C)O1 [Doxorubicin, doxorubicin, reference compound]	2.85 ± 0.21 µM	3.58 ± 0.33 µM	432 ± 19.3 µM		

Structure (SMILES)	MIC [1]	MIC (Bacillus subtilis 6633)	MIC (Bacillus cereus 33018)	MIC (Escherichia coli 8739)	MIC [2]	MIC (Candida albicans 10231)	MIC (Candida tropicals 750)	MIC [3]	MIC (Aspergillus flavus)	MIC [4]	melting point	MIC range against the tested yeasts and fungi strains [7]	IC50 (EGFR kinase)	Fold more potent than erlotinib (EGFR inhibition) (EGFR kinase; relative to erlotinib)	IC50 [5]	IC50 ([6]; Homo sapiens, MCF7, MCF7 cells)	IC50 [8]	IC50 ([6]; MCF7 cells)	MIC range against the tested bacterial strains (five bacterial strains)
Cc1ccc(-c2cc(-c3ccccc3)nc3sc4c(c23)NC2(CCCCC2)NC4=O)cc1 [Compound 6d, 7′-Phenyl-9′-(p-tolyl)-1′H-spiro[cyclohexane-1,2′-pyrido[3′,2′:4,5]thieno[3,2-d]pyrimidin]-4′(3′H)-one]	8 µg/mL (≈ 18.2 µM)	32 µg/mL (≈ 72.8 µM)	8 µg/mL (≈ 18.2 µM)	32 µg/mL (≈ 72.8 µM)	32 µg/mL (≈ 72.8 µM)	64 µg/mL (≈ 146 µM)	64 µg/mL (≈ 146 µM)	32 µg/mL (≈ 72.8 µM)	32 µg/mL (≈ 72.8 µM)	16 µg/mL (≈ 36.4 µM)	263 °C				4.45 ± 0.22 µM	21.7 ± 0.7 µM			8 to 32 µg/mL
Cc1ccc(-c2cc(-c3ccccc3)nc3sc4c(c23)NC2(CCCC2)NC4=S)cc1 [Compound 7b, 7′-Phenyl-9′-(p-tolyl)-1′H-spiro[cyclopentane-1,2′-pyrido[3′,2′:4,5]thieno[3,2-d]pyrimidine]-4′(3′H)-thione]	64 µg/mL (≈ 145 µM)	64 µg/mL (≈ 145 µM)	64 µg/mL (≈ 145 µM)	64 µg/mL (≈ 145 µM)	128 µg/mL (≈ 290 µM)	64 µg/mL (≈ 145 µM)	64 µg/mL (≈ 145 µM)	32 µg/mL (≈ 72.5 µM)	64 µg/mL (≈ 145 µM)	128 µg/mL (≈ 290 µM)					39.7 ± 1.89 µM	41.6 ± 2.2 µM			64 to 128 µg/mL
Cc1cc(C)c2c3c(sc2n1)C(SCC(N)=O)=NC1(CCCCC1)N3 [Compound 8a, 2-((7′,9′-Dimethyl-1′H-spiro[cyclohexane-1,2′-pyrido[3′,2′:4,5]thieno[3,2-d]pyrimidin]-4′-yl)sulfanyl)acetamide]	8 µg/mL (≈ 21.4 µM)	16 µg/mL (≈ 42.7 µM)	8 µg/mL (≈ 21.4 µM)	32 µg/mL (≈ 85.4 µM)	32 µg/mL (≈ 85.4 µM)	64 µg/mL (≈ 171 µM)	16 µg/mL (≈ 42.7 µM)	16 µg/mL (≈ 42.7 µM)	16 µg/mL (≈ 42.7 µM)	16 µg/mL (≈ 42.7 µM)	160 to 161 °C				6.78 ± 0.73 µM	20.9 ± 1.46 µM			8 to 32 µg/mL
Cc1cc(C)c2c3c(sc2n1)C(SCC1CO1)=NC1(CCCCC1)N3 (centres unmarked) [Compound 9a, 7′,9′-Dimethyl-4′-((oxiran-2-ylmethyl)sulfanyl)-1′H-spiro[cyclohexane-1,2′-pyrido[3′,2′:4,5]thieno[3,2-d]pyrimidine]]	16 µg/mL (≈ 42.8 µM)	32 µg/mL (≈ 85.7 µM)	8 µg/mL (≈ 21.4 µM)	32 µg/mL (≈ 85.7 µM)	16 µg/mL (≈ 42.8 µM)	16 µg/mL (≈ 42.8 µM)	32 µg/mL (≈ 85.7 µM)	32 µg/mL (≈ 85.7 µM)	16 µg/mL (≈ 42.8 µM)	64 µg/mL (≈ 171 µM)	155 °C				4.88 ± 0.65 µM	23.6 ± 1.24 µM			8 to 32 µg/mL
